ChEMBL document CHEMBL3885881, “DrugMatrix”

Species: Rattus norvegicus
Assay: DrugMatrix - Regimen: Daily Repeat
Assay type: toxicity, organism-based, Sprague-Dawley
Parameters: regimen Daily Repeat, gender Male, age 6-8 weeks
Settings: in vivo, po, route oral GAVAGE, […]; for ABSOLUTE BASOPHIL / ABSOLUTE EOSINOPHIL / ABSOLUTE LYMPHOCYTE / ABSOLUTE MONOCYTE / ABSOLUTE SEGMENTED NEUTROPHIL / BASOPHIL / EOSINOPHIL / ERYTHROCYTE COUNT / HEMATOCRIT / HEMOGLOBIN / LEUKOCYTE COUNT / LYMPHOCYTE / MEAN CORPUSCULAR HEMOGLOBIN / MEAN CORPUSCULAR HEMOGLOBIN CONCENTRATION / MEAN CORPUSCULAR VOLUME / MONOCYTE / NEUTROPHIL / NUCLEATED RED BLOOD CELLS / PLATELET COUNT: tissue Blood; for ALANINE AMINOTRANSFERASE / ALBUMIN / ALKALINE PHOSPHATASE / ASPARTATE AMINOTRANSFERASE / BLOOD UREA NITROGEN / CARBON DIOXIDE / CHLORIDE / CHOLESTEROL / CREATINE PHOSPHOKINASE / CREATININE / GLUCOSE / LACTATE DEHYDROGENASE / LIPASE / PHOSPHORUS / POTASSIUM / SODIUM / TOTAL BILIRUBIN / TOTAL PROTEIN / URIC ACID: tissue Plasma
[1] = 0 mg/kg, 72 h, dose level Control, time 3 day
[2] = 0 mg/kg, 120 h, dose level Control, time 5 day
[3] = 10 mg/kg, 72 h, dose level Low, time 3 day

SMILES: c1ccc2[nH]c(-c3cscn3)nc2c1 [THIABENDAZOLE]
- ABSOLUTE BASOPHIL [1]: 0 CELLS/uL
- ABSOLUTE EOSINOPHIL [1]: 13.67 CELLS/uL
- ABSOLUTE LYMPHOCYTE [1]: 10069.5 CELLS/uL
- ABSOLUTE MONOCYTE [1]: 50 CELLS/uL
- ABSOLUTE SEGMENTED NEUTROPHIL [1]: 516.83 CELLS/uL
- BASOPHIL [1]: 0%
- EOSINOPHIL [1]: 0.17%
- ERYTHROCYTE COUNT [1]: 5.44 x10E6/uL
- HEMATOCRIT [1]: 33.88%
- HEMOGLOBIN [1]: 13.23 G/DL
- LEUKOCYTE COUNT [1]: 10.65 x10E3/uL
- LYMPHOCYTE [1]: 94.67%
- MEAN CORPUSCULAR HEMOGLOBIN [1]: 24.37 pg
- MEAN CORPUSCULAR HEMOGLOBIN CONCENTRATION [1]: 39.05 G/DL
- MEAN CORPUSCULAR VOLUME [1]: 62.38 fL
- MONOCYTE [1]: 0.67%
- NEUTROPHIL [1]: 4.5%
- NUCLEATED RED BLOOD CELLS [1]: 0.33 /100WBC
- PLATELET COUNT [1]: 414.5 x10E3/uL
- ALANINE AMINOTRANSFERASE [1]: 72 u/L
- ALBUMIN [1]: 3.75 G/DL
- ALKALINE PHOSPHATASE [1]: 375 u/L
- ASPARTATE AMINOTRANSFERASE [1]: 87.5 u/L
- BLOOD UREA NITROGEN [1]: 14 mg/dL
- CARBON DIOXIDE [1]: 27.5 mmol/L
- CHLORIDE [1]: 95.83 MEQ/L
- CHOLESTEROL [1]: 68.5 mg/dL
- CREATINE PHOSPHOKINASE [1]: 284.33 u/L
- CREATININE [1]: 0.16 mg/dL
- GLUCOSE [1]: 156.67 mg/dL
- LACTATE DEHYDROGENASE [1]: 101.83 u/L
- LIPASE [1]: 9.67 u/L
- PHOSPHORUS [1]: 10.33 mg/dL
- POTASSIUM [1]: 5.22 MEQ/L
- SODIUM [1]: 137.67 MEQ/L
- TOTAL BILIRUBIN [1]: 0.13 mg/dL
- TOTAL PROTEIN [1]: 5.43 G/DL
- URIC ACID [1]: 0.8 mg/dL
- ABSOLUTE BASOPHIL [2]: 0 CELLS/uL
- ABSOLUTE EOSINOPHIL [2]: 20.67 CELLS/uL
- ABSOLUTE LYMPHOCYTE [2]: 11518.33 CELLS/uL
- ABSOLUTE MONOCYTE [2]: 47 CELLS/uL
- ABSOLUTE SEGMENTED NEUTROPHIL [2]: 614 CELLS/uL
- BASOPHIL [2]: 0%
- EOSINOPHIL [2]: 0.17%
- ERYTHROCYTE COUNT [2]: 5.61 x10E6/uL
- HEMATOCRIT [2]: 34.25%
- HEMOGLOBIN [2]: 13.38 G/DL
- LEUKOCYTE COUNT [2]: 12.2 x10E3/uL
- LYMPHOCYTE [2]: 94.33%
- MEAN CORPUSCULAR HEMOGLOBIN [2]: 23.83 pg
- MEAN CORPUSCULAR HEMOGLOBIN CONCENTRATION [2]: 39.08 G/DL
- MEAN CORPUSCULAR VOLUME [2]: 61.03 fL
- MONOCYTE [2]: 0.33%
- NEUTROPHIL [2]: 5.17%
- NUCLEATED RED BLOOD CELLS [2]: 0 /100WBC
- PLATELET COUNT [2]: 941.83 x10E3/uL
- ALANINE AMINOTRANSFERASE [2]: 68.83 u/L
- ALBUMIN [2]: 4.12 G/DL
- ALKALINE PHOSPHATASE [2]: 492.67 u/L
- ASPARTATE AMINOTRANSFERASE [2]: 83.33 u/L
- BLOOD UREA NITROGEN [2]: 14 mg/dL
- CARBON DIOXIDE [2]: 37 mmol/L
- CHLORIDE [2]: 98.67 MEQ/L
- CHOLESTEROL [2]: 56.5 mg/dL
- CREATINE PHOSPHOKINASE [2]: 167.33 u/L
- CREATININE [2]: 0.17 mg/dL
- GLUCOSE [2]: 157.5 mg/dL
- LACTATE DEHYDROGENASE [2]: 104.83 u/L
- LIPASE [2]: 10 u/L
- PHOSPHORUS [2]: 10.43 mg/dL
- POTASSIUM [2]: 5.46 MEQ/L
- SODIUM [2]: 143.87 MEQ/L
- TOTAL BILIRUBIN [2]: 0.17 mg/dL
- TOTAL PROTEIN [2]: 5.72 G/DL
- URIC ACID [2]: 0.85 mg/dL
- ABSOLUTE BASOPHIL [3]: 0 CELLS/uL
- ABSOLUTE EOSINOPHIL [3]: 0 CELLS/uL
- ABSOLUTE LYMPHOCYTE [3]: 5878.33 CELLS/uL
- ABSOLUTE MONOCYTE [3]: 47.67 CELLS/uL
- ABSOLUTE SEGMENTED NEUTROPHIL [3]: 707.33 CELLS/uL
- BASOPHIL [3]: 0%
- EOSINOPHIL [3]: 0%
- ERYTHROCYTE COUNT [3]: 5.01 x10E6/uL
- HEMATOCRIT [3]: 31.07%
- HEMOGLOBIN [3]: 12.3 G/DL
- LEUKOCYTE COUNT [3]: 6.63 x10E3/uL
- LYMPHOCYTE [3]: 88.67%
- MEAN CORPUSCULAR HEMOGLOBIN [3]: 24.73 pg
- MEAN CORPUSCULAR HEMOGLOBIN CONCENTRATION [3]: 39.77 G/DL
- MEAN CORPUSCULAR VOLUME [3]: 62.1 fL
- MONOCYTE [3]: 0.67%
- NEUTROPHIL [3]: 10.67%
- NUCLEATED RED BLOOD CELLS [3]: 0 /100WBC
- PLATELET COUNT [3]: 848.67 x10E3/uL
- ALANINE AMINOTRANSFERASE [3]: 79.33 u/L
- ALBUMIN [3]: 3.7 G/DL
- ALKALINE PHOSPHATASE [3]: 386.33 u/L
- ASPARTATE AMINOTRANSFERASE [3]: 90.33 u/L
- BLOOD UREA NITROGEN [3]: 13.33 mg/dL
- CARBON DIOXIDE [3]: 25 mmol/L
- CHLORIDE [3]: 96 MEQ/L
- CHOLESTEROL [3]: 74 mg/dL
- CREATINE PHOSPHOKINASE [3]: 147.33 u/L
- CREATININE [3]: 0.21 mg/dL
- GLUCOSE [3]: 143.33 mg/dL
- LACTATE DEHYDROGENASE [3]: 107.33 u/L
- LIPASE [3]: 12.67 u/L
- PHOSPHORUS [3]: 10.57 mg/dL
- POTASSIUM [3]: 5.5 MEQ/L
- SODIUM [3]: 138.4 MEQ/L
- TOTAL BILIRUBIN [3]: 0.13 mg/dL
- TOTAL PROTEIN [3]: 5.33 G/DL
- URIC ACID [3]: 0.87 mg/dL
